# Assays:
# Format in all cases: in vivo, hairless mice (male HR-1)
# skins of hairless mice = assay: Skin wrinkle measurement with silicone skin replica of back skin of UV-irradiated hairless mice; details: 12 weeks
# Method: (§1) 7-week old male hairless mice (male HR-1, hairless mice, Japan SLC, Inc.), the experimental animals, were purchased from Central Lab. Animal Inc (Seoul, Korea). and used after an adaption period of a week. Only healthy animals were used in the experiments by observing general conditions during the adaption period. The breeding environment was maintained at 23±3° C. with 50±5% humidity with a light-dark cycle of 12 hours (7:00-19:00/lighting time). During the experiments, seven experimental animals per each experimental group were raised in a polycarbonate cage (200×320×145 mm, Three-shine Co., Daejeon, Korea), and the animals were given both mouse feed 5L79 (Charles river, USA) and tap water for drinking sterilized with UV rays to be consumed freely.
# The experiments were carried out on the following groups: a control group (Con), a UV-treated group (UV), an excipient-treated group (Vehicle), and a group treated by the compound represented by Formula 1 (TM), and the samples were administered thereto. The sample administration was performed for 12 weeks in total by spreading the samples onto skins. […]
# (§2) Ultraviolet irradiation was performed on the experimental groups except for the control group using a UVB lamp (Mineralight UV Display lamp, UVP, USA) three times a week for 8 weeks. […] The UV irradiance was measured by a radiometry instrument (Delta OHM, Italy), and then, was adjusted according to irradiation time.
# The degree of wrinkle formation was measured with a silicone skin replica of the back skins of the hairless mice of each experimental group. […] A shadow image, generated according to the thickness of the skin replica, was filed using a CCD camera, and the depth and length of wrinkles were measured using the Skin Visiometer VL 650 software, which is a computer image analysis system. […]
# [1] = system: back skin tissues of hairless mice; assay: Histological observation of skin (H&E and Masson's trichome staining); details: 0.25% (w/v) topical, 12 weeks, UVB irradiation
# Method: as §1
# The experiments were carried out on the following groups: a control group (Con), a UV-treated group (UV), an excipient-treated group (Vehicle), and a group treated by the compound represented by Formula 1 (TM), and the samples were administered thereto. The sample administration was performed for 12 weeks in total by spreading the samples onto skins. For the compound treated group (TM), the compound was dissolved in dimethyl sulfoxide (DMSO), and subsequently in a mixed solution containing propylene glycol, ethanol, and poly ethylene glycol with a 1:1:1 ratio, and the dissolved formulation (the final concentration of the compound was 0.25% (w/v)) was applied to skins with the amount of 40 uL per 6 cm^2 once a day for 5 days a week. The excipient-treated group (Vehicle) were treated in the same manner as the compound treated group (TM), except the compound omitted.
# as §2, with “time. […]” for “time.”
# [2] = system: back skin tissues of hairless mice; assay: Epidermis thickness measured in H&E-stained tissues; details: 0.25% (w/v) topical, 12 weeks; UVB irradiation; p<0.05
# Method: as §1, with “freely. […]” for “freely.”
# as §2, with “time. […]” for “time.”
# The epidermis thickness was measured from the keratin layer to the epidermal basement membrane of tissues, which were stained with H&E in Experimental Example 3), by a ruler installed in a microscope, and the result is shown in FIG. 6.
# [3] = system: back skins of hairless mice; assay: Transepidermal water loss (TEWL) analysis; details: 0.25% (w/v) topical, 12 weeks; UVB irradiation; Tewameter at 23° C., relative humidity 50%; p<0.01
# Method: 7-week old male hairless mice (male HR-1, hairless mice, Japan SLC, Inc.), the experimental animals, were purchased from Central Lab. Animal Inc (Seoul, Korea). and used after an adaption period of a week. Only healthy animals were used in the experiments by observing general conditions during the adaption period. The breeding environment was maintained at 23±3° C. with 50±5% humidity with a light-dark cycle of 12 hours (7:00-19:00/lighting time). […]
# as §2
# To confirm the skin-moisturizing effect, the transepidermal water loss analysis was carried out with back skins of hairless mice in each experimental group. The transepidermal water loss level refers to the water quantity diffused from a skin, and if the level is high, it would mean that the skin moisturizing function is weakened, and that the function of innate skin barrier is damaged. […] The evaporated water quantity was then measured using Tewameter, and the skin moisturizing-ability was calculated.
# [4] = compared to UV-treated group and excipient-treated group
smiles,measurement,setting,value
C[C@H]1CCC2(OC1)OC1CC3C4CC[C@@H]5CC(OC6OC(CO)C(O)C(O)C6OC6OC(CO)C(O)C(O)C6O)CC[C@]5(C)C4CC[C@]3(C)C1[C@@H]2C (some centres unmarked) [compound represented by Formula 1],"degree of skin-wrinkle formation (skin replica image, FIG. 1)","skins of hairless mice; 0.25% (w/v) spread onto skin, 40 uL per 6 cm^2 once a day 5 days a week, UVB irradiation 8 weeks, compared to UV-treated group",thick wrinkles were alleviated
same,mean wrinkle length (FIG. 2),"skins of hairless mice; 0.25% (w/v) topical, UVB irradiation, compared to UV group and excipient-treated group (Vehicle), p<0.0001",significantly reduced
same,mean wrinkle depth (FIG. 3),"skins of hairless mice; 0.25% (w/v) topical, UVB irradiation, compared to UV-treated group, p<0.0001",significantly reduced
same,"collagen fibers (Masson's trichome staining, FIG. 5)",[1]; compared to UV-treated group,collagen fibers were increased
same,"cornified layers (H&E staining, FIG. 4)",[1]; [4],cornified layers were alleviated
same,"epidermis (H&E staining, observed, FIG. 4)",[1]; [4],thinner epidermises were observed
same,"epidermis thickness (keratin layer to epidermal basement membrane, FIG. 6)",[2],significantly reduced
same,"skin water loss induced by UV rays (transepidermal water loss, FIG. 7)",[3],significantly prevented

# Reference: patent publication US9839594B2, “Skin-moisturising or wrinkle-improving external composition and cosmetic composition” (KOREA INSTITUTE OF ORIENTAL MEDICINE, priority 2012, dated 2017)
